According to patent US20100190716A1, “USE OF A PLATELET FIBRINOGEN RECEPTOR HEXAPEPTIDE ANTAGONIST AND ALPHA-ENDORPHIN AS THERAPEUTIC AGENTS” (priority 2007, published 2010):
Where no end group is shown, it is not given here. [ ]: non-standard residue; d: D form. Hyp = O=C(O)[C@@H]1C[C@@H](O)CN1

Tests used:
HIV-1IIIB = experiment: HIV-1 antiviral assay in CEM-SS cells (MTS readout); details: positive controls
HCMV strain AD169 = experiment: HCMV plaque formation assay in MRC-5 cells; details: for inhibition of HCMV plaque formation compared to virus control: 10 micrograms per ml, 7-10 days
[1] = system: hepatitis B virus (HBV) ayw strain; experiment: HBV experimental assay system, secreted HBV DNA by TaqMan PCR in HepG2-2.2.15; format: cell-based; details: 10 micrograms per ml, HepG2-2.2.15, 6 days
[2] = system: Human Peripheral Blood Mononuclear Cells (PBMC), B cell proliferation; experiment: B cell proliferation assay (SAC plus Interleukin-2 stimulated PBMC, 3H-thymidine); format: cell-based; details: 10 micrograms per ml; SAC plus IL-2 stimulated PBMC
Method: Human Peripheral Blood Mononuclear Cells (PBMC) were obtained from normal human donors. The B cell proliferation was induced by stimulation of the cells with the B cell mitogen Staphylococcus aureus Cowans I (SAC) plus Interleukin-2, either in the absence (positive proliferation control), or in the presence of test peptides—10 micrograms per ml—to examine their effects on the B cell response. 10^5/well PBMC were plated in 96-well microtiter plates and assayed in duplicate with the peptides. Cell cultures were incubated at 37° C. for 3 days in a 5% CO2 incubator and were thereafter pulsed with 1 microCi/well ^3H-thymidine for additional 12 hours of culture. At the end of incubation time, the plates were harvested and the cells counted by liquid scintillation for the incorporation of ^3H-thymidine as a measure of B cell proliferation.

HUVEC = experiment: Endothelial tube formation assay; format: cell-based, human; details: 10 micrograms per ml, 20 hours
Method: The endothelial tube formation assay is based on the ability of endothelial cells to form three-dimensional capillary-like tubular structures when cultured on a gel of basement membrane extract. The endothelial tube formation assay represents a powerful model for studying inhibition and induction of angiogenesis. Pre-labeled HUVEC with Calcein AM were seeded in a 96-well culture plate coated with extracellular metrix (Chemicon international Cat. ECM625) and treated with test peptides—10 micrograms per ml—in full growth medium. Positive control was vehicle only. The endothelial cells were allowed to form tubes foe 20 hours and were then examined under an inverted fluorescent microscope. Duplicate wells for each treatment were photographed and quantitatively analyzed for an average tubule length using image analysis software ImageProPlus. Raw data were expressed as average tubule lengths in pixels ±standard deviation. Statistic p values were computed using the Student's t-test.

Interleukin-2 (IL-2) = experiment: Th1/Th2 cytokine profiling assay, IL-2; format: cell-based, mouse; details: 10 micrograms per ml; Ovalbumin-restimulated Balb/c spleen cells, 72 hours
From the text: (§1) The Balb/c mice (originated in 1923, it is a popular strain and is used in many different research disciplines. Also classified as an inbred from the production of 20 or more successive brother-sister matings, the Balb/c mouse is albino and small in size) were immunized on Days 1, 15, and 29 with Ovalbumin (Ovalbumin is the main protein found in egg white, commonly used to stimulate an immunological reaction in test animals) in PBS (5 micrograms/injection). On day 50, spleens of the mice were harvested (3 weeks after last boost with Ovalbumin). […] Thereafter, additional Ovalbumin was added to the cells at 10 micrograms/ml for in vitro restimulation of the cells. 72 hours later, cell supernatants were harvested and assayed using the Becton Dickinson Mouse Th1/Th2 Cytokine CBA Kit. This kit can be used to measure Interleukin-2 (IL-2), Interleukin-4 (IL-4), Interleukin-5 (IL-5), Interferon-γ (IFN-γ), and Tumor Necrosis Factor-α (TNF-α) protein levels in a single sample. The kit performance has been optimized for analysis of physiologically relevant concentrations ([…] levels) of specific cytokine proteins in tissue culture supernatants and serum samples.

Interleukin-5 (IL-5) = experiment: Th1/Th2 cytokine profiling assay, IL-5; format: cell-based, mouse; details: 10 micrograms per ml; Ovalbumin-restimulated Balb/c spleen cells, 72 hours
From the text: as §1

[3] = system: Primary Human endothelial cells (HUVEC); experiment: Endothelial cell migration assay; format: cell-based; details: 10 micrograms per ml, 22 hours
Method: Endothelial cell migration is a prerequisite for the process of neo-vascularization or angiogenesis which is crucial for on-site recruitment of blood vessel formation. Primary Human endothelial cells (HUVEC) were seeded in insert chambers with 3 micrometer pore size of multi-transwell plate for 6 hours at 37° C. in Endothelial Cell Basal Medium (EBM) supplemented with 0.1% bovine serum albumin. Thereafter, designated concentration of testing peptides—10 micrograms per ml—was added in duplicate wells. The endothelia were allowed to migrate for 22 hours at 37° C., then, migrated cells were fixed and stained with Hoechst 33342 dye. Images of 3 fields per insert were taken and the number of migrated cells per field were quantified using the ImageProPlus software. Data were analyzed for the average number of the migrated cells and standard deviation of six data points for each treatment condition. Active test peptides against HUVEC migration was determined based on 50% inhibition of migrated cells as compared with the control. Statistic p values were computed using the Student's t-test.

Interferon-γ (IFN-γ) = experiment: Th1/Th2 cytokine profiling assay, IFN-γ; format: cell-based, mouse; details: 10 micrograms per ml; Ovalbumin-restimulated Balb/c spleen cells, 72 hours
From the text: as §1

Interleukin-4 (IL-4) = experiment: Th1/Th2 cytokine profiling assay, IL-4; format: cell-based, mouse; details: 10 micrograms per ml; Ovalbumin-restimulated Balb/c spleen cells, 72 hours
From the text: as §1

[4] = system: Tumor Necrosis Factor-α (TNF-α); experiment: Th1/Th2 cytokine profiling assay, TNF-α; format: cell-based, mouse; details: 10 micrograms per ml; Ovalbumin-restimulated Balb/c spleen cells, 72 hours
From the text: as §1

Row | Molecule | antiviral activity of positive control compounds (HIV-1IIIB) | antiviral activity of positive control compound (HCMV strain AD169; positive control, HCMV AD169) | inhibition of HBV replication on tested liver cells [1] | decrease of the proliferation of specifically stimulated human B-cells [2] | inhibition of the tube formation of human endothelial cells (HUVEC) | IL-2 spleen cells (% of control) (Interleukin-2 (IL-2)) | IL-5 spleen cells; TH2 response (% of control) (Interleukin-5 (IL-5)) | inhibition of the migration of human endothelial cells [3] | IFNγ spleen cells; TH1 response (% of control) (Interferon-γ (IFN-γ)) | IL-4 spleen cells; TH2 response (% of control) (Interleukin-4 (IL-4)) | inhibition of HCMV plaque formation compared to virus control (HCMV strain AD169) | TNF-a spleen cells; TH1 response (% of control) [4]
1 | Cc1cn([C@H]2C[C@H](N=[N+]=[N-])[C@@H](CO)O2)c(=O)[nH]c1=O [AZT] | expected levels of antiviral activity | – | – | – | – | – | – | – | – | – | – | –
2 | Nc1nc(O)c2ncn(COC(CO)CO)c2n1 [Ganciclovir, reference compound] | – | expected levels of antiviral activity | – | – | – | – | – | – | – | – | – | –
3 | CC(C)(C)NC(=O)[C@@H]1CN(Cc2cccnc2)CCN1C[C@@H](O)C[C@@H](Cc1ccccc1)C(=O)N[C@H]1c2ccccc2C[C@H]1O [indinavir] | expected levels of antiviral activity | – | – | – | – | – | – | – | – | – | – | –
4 | PS[Hyp]GDW-OH [peptide 1] | – | – | no effect | 20.9% | did not inhibit | 117.9 % of control | 65.5 % of control | 39% | 63.7 % of control | 0.0 % of control | did not inhibit | 96.0 % of control
5 | Tyr-Gly-Gly-Phe-Met-Thr-Ser-Glu-Lys-Ser-Gln-Thr-Pro-Leu-Val-Thr-OH (YGGFMTSEKSQTPLVT-OH) [peptide 2, Alpha-Endorphin] | – | – | no effect | 12.0% | did not inhibit | 0.0 % of control | 53.0 % of control | 31% | 68.6 % of control | 0.0 % of control | did not inhibit | 93.1 % of control
